Earlier results in patent US6596714B1, “Parasiticidal formulation for animals and a method of making this formulation” (Phoenix Scientific, Inc., priority 2000, dated 2003).

Tested on: cestode infestations

## CN1CCCN=C1/C=C/c1cccs1 [pyrantel pamoate]
About three times the label recommended dosage, about 19.8 milligrams per kilogram of animal
  Effectiveness in treating cestode infestations: about 100%
Label dosage of about 6.6 milligrams per kilogram of animal, paste formulations, average
  Average efficacy against cestode infestations: about 85%
